Data reported in patent US20250092044A1, “Kinase Inhibitors” (Incyte Corporation, priority 2023, published 2025).
Like-named read-outs stand apart in the source and are kept apart here.

Columns and labels:
[1] = biological target: pseudo-kinase domain (JH2) of human V617F mutant JAK2 (Homo sapiens (Human), UniProt O60674, F794H/V617F/W659A/W777A); test: JAK2 LanthaScreen JH2-V617F Binding Assay; conditions: read-out: JH2 V617F Bind IC50
Description: JAK2 JH2-V617F binding assay utilizes pseudo-kinase domain (JH2, amino-acids 536-812 with 3 surface mutations W659A, W777A, F794H) of human V617F mutant JAK2 expressed as C-terminal His-Avi-tagged, biotinylated protein in a baculovirus expression system (BPS Bioscience, Catalog #79498). The assay was conducted in black 384-well polystyrene plates in a final reaction volume of 20 μL. JAK2 JH2-V617F (0.26 nM) was incubated with compounds (100 nL serially diluted in DMSO) in the presence of 50 nM Fluorescent JAK2-JH2 Tracer (MedChem Express Catalog #HY-102055) and 0.25 nM Streptavidin-Tb cryptate (Cisbio Part #610SATLB) in assay buffer (50 mM Tris, pH=7.5, 10 mM MgCl2, 0.01% Brij-35, 0.1% BSA, 1 mM EGTA, 5% Glycerol and 5 mM DTT). Non-specific binding was accessed in the presence of 2 mM ATP. After incubation for 1 hour at 25° C., LanthaScreen signals were read on a PHERAstar FS plate reader (BMG LABTECH). Data was analyzed with IDBS XLfit and GraphPad Prism 5.0 software using a four parameter dose response curve to determine IC50 for each compound.

[2] = FaSSIF Solubility Assay; type: physicochemical; conditions: FaSSIF (fasted state simulated intestinal fluid), 25 °C, pH 6.5, fassif, thermodynamic from solid, FaSSIF pH=6.5, 25° C.
Source text: The FaSSIF (Fasted State Simulated Intestinal Fluid) solubility assay can predict how an oral drug is likely to be dissolved and potentially absorbed in the upper intestine after drinking a glass of water. FaSSIF solubility assay utilizes biorelevant intestinal media (Biorelevant, Part #FFF01) comprised of physiological surfactants, bile salts, and phospholipids that are present in the gastrointestinal fluids it mimics. FaSSIF (pH=6.5) has the average pH of a fasted intestinal fluid with similar osmolarity. The FaSSIF buffer was prepared by adding 20 mL of phosphate buffer to FaSSIF Powder. The buffer was then added to the dry compound of interest at a concentration of 1 mg/mL and then incubated at 25° C. for 24 hours in a Rototherm Plus (Part #H2024). After incubation, the Eppendorf tubes were centrifuged and run on an Agilent 1260 LC-MS. The LC-MS method is a 5 min gradient method of 2% to 95% acetonitrile with water (0.05% TFA) using a Sunfire C18, 5 um 2.1×50 mm (Part #186002539) column. A dry reference compound of interest was diluted to a known 1 mg/mL concentration in 1:1 of water and acetonitrile. Step-wise serial dilutions were performed and run on an Agilent 1260 LC-MS using the same conditions to make a standard curve. The area under the curve is reported for the compound of interest in FaSSIF buffer and the reference standards. Calculations were performed and the predicted solubility, μg/mL, was reported for compounds of the examples.

[3] = biological target: FLT3 (Homo sapiens (Human), UniProt P36888); test: FLT3 Enzymatic Assay; type: biochemical; conditions: 1 mM ATP
Sequence of FLT3 (Homo sapiens (Human), UniProt P36888) (P36888 27-993, species assumed): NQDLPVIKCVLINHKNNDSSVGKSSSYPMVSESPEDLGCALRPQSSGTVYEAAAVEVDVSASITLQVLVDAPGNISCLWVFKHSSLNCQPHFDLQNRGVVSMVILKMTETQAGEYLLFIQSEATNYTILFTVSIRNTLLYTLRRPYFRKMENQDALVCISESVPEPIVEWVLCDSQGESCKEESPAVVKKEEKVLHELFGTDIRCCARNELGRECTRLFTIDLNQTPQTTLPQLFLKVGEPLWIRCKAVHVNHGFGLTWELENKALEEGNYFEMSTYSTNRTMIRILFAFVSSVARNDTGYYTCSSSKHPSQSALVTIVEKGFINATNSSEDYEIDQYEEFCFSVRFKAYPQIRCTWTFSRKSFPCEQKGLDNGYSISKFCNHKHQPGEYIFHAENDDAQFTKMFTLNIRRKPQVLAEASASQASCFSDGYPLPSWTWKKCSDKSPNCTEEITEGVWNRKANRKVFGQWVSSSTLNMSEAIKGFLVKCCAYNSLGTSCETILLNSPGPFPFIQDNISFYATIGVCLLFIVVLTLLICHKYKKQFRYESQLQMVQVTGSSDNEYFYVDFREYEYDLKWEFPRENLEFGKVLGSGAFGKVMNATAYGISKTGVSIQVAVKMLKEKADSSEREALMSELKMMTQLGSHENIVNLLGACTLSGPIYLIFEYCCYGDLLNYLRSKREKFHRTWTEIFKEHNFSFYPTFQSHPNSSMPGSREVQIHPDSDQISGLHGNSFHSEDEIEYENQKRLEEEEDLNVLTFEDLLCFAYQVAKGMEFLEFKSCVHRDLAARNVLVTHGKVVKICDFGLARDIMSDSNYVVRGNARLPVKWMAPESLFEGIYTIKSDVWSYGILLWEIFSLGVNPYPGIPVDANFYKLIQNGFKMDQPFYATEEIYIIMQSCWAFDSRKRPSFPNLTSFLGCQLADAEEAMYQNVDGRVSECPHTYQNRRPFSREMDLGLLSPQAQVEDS
Description: (§1) The kinase assays were carried out at room temperature in assay buffer (HEPES 50 mM, pH 7.0, NaN3 0.02%, BSA 0.01%, Orthovanadate 0.1 mM, DTT 1 mM, MgCl2 10 mM) in a final volume of 10 μL. Testing compounds were prepared by serial dilution in DMSO and transferred to the plate wells by ECHO liquid handler (Labcyte) with 0.5% DMSO in the final assay. […]. Reactions were initiated by the addition of 5 μL ATP in assay buffer. The final 10 μL kinase reaction consists of 0.011 nM FLT3, 1 mM ATP, 500 nM TK Substrate-biotin and SEB reagent 62.5 nM in assay buffer. […] The plates were then sealed and centrifuged at 1800 rpm for 2 minutes. After 60 minutes incubation at room temperature, the product activity was determined by measuring the fluorescence at 620 nm and 665 nm on Pherastar microplate reader (BMG Labtech). A ratio is calculated (665/620 nm) for each well. Wells with DMSO only were served as the positive controls and wells containing no ATP were used as negative controls. IC50 determination was performed by fitting the curve of percent control activity versus the log of the compound concentration using the GraphPad Prism 7.0 software.

[4] = system: FLT3; test: FLT3 Enzymatic Assay; type: biochemical
Description: as §1

[5] = biological target: TRKA (Homo sapiens (Human), UniProt P04629); test: TRKA Enzymatic Assay; type: biochemical; conditions: 1 mM ATP
Sequence of TRKA (Homo sapiens (Human), UniProt P04629) (P04629 33-796, species assumed): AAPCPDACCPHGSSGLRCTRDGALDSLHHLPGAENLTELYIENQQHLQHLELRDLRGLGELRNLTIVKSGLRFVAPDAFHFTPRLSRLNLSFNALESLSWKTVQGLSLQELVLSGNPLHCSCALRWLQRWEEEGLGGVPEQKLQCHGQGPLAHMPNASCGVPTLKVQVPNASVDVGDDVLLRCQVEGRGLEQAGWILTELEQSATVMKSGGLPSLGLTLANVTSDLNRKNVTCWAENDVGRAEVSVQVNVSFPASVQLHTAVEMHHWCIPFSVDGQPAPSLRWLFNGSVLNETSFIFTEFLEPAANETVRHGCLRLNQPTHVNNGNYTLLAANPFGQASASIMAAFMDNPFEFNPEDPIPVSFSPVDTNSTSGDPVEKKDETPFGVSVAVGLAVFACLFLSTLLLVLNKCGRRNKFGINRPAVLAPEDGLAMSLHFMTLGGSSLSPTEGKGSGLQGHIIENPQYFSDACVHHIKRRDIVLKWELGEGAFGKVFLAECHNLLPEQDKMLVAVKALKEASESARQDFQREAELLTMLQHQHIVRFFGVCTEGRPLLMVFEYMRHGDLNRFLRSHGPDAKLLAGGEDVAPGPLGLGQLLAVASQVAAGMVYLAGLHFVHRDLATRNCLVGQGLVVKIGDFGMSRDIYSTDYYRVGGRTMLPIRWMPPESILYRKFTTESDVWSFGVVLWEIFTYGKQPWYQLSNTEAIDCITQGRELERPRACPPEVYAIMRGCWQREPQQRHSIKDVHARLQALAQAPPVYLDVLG
Description: (§2) The kinase assays were carried out at 24° C. temperature in assay buffer (HEPES 50 mM, pH 7.0, NaN3 0.02%, BSA 0.01%, Orthovanadate 0.1 mM, DTT 1 mM, MgCl2 10 mM) in a final volume of 10 μL. Testing compounds were prepared by serial dilution in DMSO and transferred to the plate wells by ECHO liquid handler (Labcyte) with 0.5% DMSO in the final assay. […]. Reactions were initiated by the addition of 5 μL ATP in assay buffer. The final 10 μL kinase reaction consisted of 0.58 nM TRKA, 1 mM ATP, 500 nM TK Substrate-biotin and SEB reagent 62.5 nM in assay buffer. […] After 60 minutes incubation at room temperature, the product activity was determined by measuring the fluorescence at 620 nm and 665 nm on Pherastar microplate reader (BMG Labtech). A ratio was calculated (665/620 nm) for each well. Wells with DMSO only served as the positive controls and wells containing no ATP were used as negative controls. IC50 determination was performed by fitting the curve of percent control activity versus the log of the compound concentration using the Gene data.

[6] = system: TRKA; test: TRKA Enzymatic Assay; type: biochemical
Description: as §2

[7] = system: STAT5 (Tyr694) phosphorylation in SET-2 cells; test: STAT5 (Tyr694) Phosphorylation Cell Based Assay; conditions: Homo sapiens, 2 hours, read-out: SET2 IC50
Description: SET-2 cells was purchased from DSMZ (Germany). RPMI1640 medium, Fetal Bovine Serum and 384-white sold flat-bottom small volume plate were purchased from Thermo Fisher Scientific (Waltham, MA). Phospho-STAT5 (Tyr694) HTRF kit was purchased from Perkin Elmer (Waltham, MA).
SET-2 cells were cultured in RPMI media with 20% FBS at 37° C. in humidified incubator supplied with 5% CO2. On the day of assay, the cells were centrifuged to remove the culture media and resuspended with prewarmed RPMI with 10% FBS. Testing compounds were prepared by serial dilution in DMSO and 50 nL/well test compounds were transferred to the 384 white low volume cell culture plate (Greiner Bio-one) by ECHO liquid handler (Labcyte). The cells were then dispensed with Multidrop (Thermo Fisher, Waltham, MA) at 10 μL/well (7×10^6 cells/mL) with 0.5% DMSO in the final assay. After the treated cells were incubated for 2 hours at 37° C./5% CO2 incubator, 4 μL/well supplemented lysis buffer (100× blocking buffer diluted 25 fold in 4× lysis buffer, Perkin Elmer) were added and incubated at room temperature for 90 min on orbital shaker at 600 rpm. Phospho-STAT5 Cryptate antibody and Phospho-STAT5 d2 antibody (1:1 vol/vol) were premixed and diluted 20 fold with in the detection buffer (Perkin Elmer). 4 μL of the premixed antibody solution were added to each well followed with 24 hours incubation at room temperature on orbital shaker at 600 rpm. The product activity was determined by measuring the fluorescence at 620 nm and 665 nm on Pherastar microplate reader (BMG Labtech). A ratio is calculated (665/620) for each well. Wells with DMSO only served as the positive controls and wells containing high concentration of control compound were used as negative controls. IC50 determination was performed by fitting the curve of percent control activity versus the log of the compound concentration using the GraphPad Prism 7.0 software.

[8] = biological target: catalytic domain (JH1) of human JAK2 (Homo sapiens (Human), UniProt O60674); test: JAK2 LanthaScreen JH1 Binding Assay; conditions: read-out: JH1 Bind IC50
Sequence of catalytic domain (JH1) of human JAK2 (O60674 826-1132): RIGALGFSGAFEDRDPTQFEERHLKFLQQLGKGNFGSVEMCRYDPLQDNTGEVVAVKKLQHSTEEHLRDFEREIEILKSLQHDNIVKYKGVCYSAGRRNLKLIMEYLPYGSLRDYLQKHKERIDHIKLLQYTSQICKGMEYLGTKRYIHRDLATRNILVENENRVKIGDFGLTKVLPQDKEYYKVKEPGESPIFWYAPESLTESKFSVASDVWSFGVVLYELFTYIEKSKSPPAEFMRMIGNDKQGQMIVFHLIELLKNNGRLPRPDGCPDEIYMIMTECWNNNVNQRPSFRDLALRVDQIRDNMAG
Description: JAK2 JH1 binding assay utilizes catalytic domain (JH1, amino acids 826-1132) of human JAK2 expressed as N-terminal FLAG-tagged, biotinylated protein in a baculovirus expression system (Carna Biosciences, Product #08-445-20N). The assay was conducted in black 384-well polystyrene plates in a final reaction volume of 20 μL. JAK2 JH1 (1.5 nM) was incubated with compounds (100 nL serially diluted in DMSO) in the presence of 50 nM fluorescent JAK2-JH1 tracer and 0.5 nM Streptavidin-Tb cryptate (Cisbio Part #610SATLB) in assay buffer (50 mM Tris, pH=7.5, 10 mM MgCl2, 0.01% Brij-35, 0.1% BSA, 1 mM EGTA, 5% Glycerol and 5 mM DTT). Non-specific binding was accessed in the presence of 2 mM ATP. After incubation for 2 hours at 25° C., LanthaScreen signals were read on a PHERAstar FS plate reader (BMG LABTECH). Data was analyzed with IDBS XLfit and GraphPad Prism 5.0 software using a four parameter dose response curve to determine IC50 for each compound.

Sequence of pseudo-kinase domain (JH2) of human V617F mutant JAK2 (O60674 536-812 V617F/W659A/W777A/F794H): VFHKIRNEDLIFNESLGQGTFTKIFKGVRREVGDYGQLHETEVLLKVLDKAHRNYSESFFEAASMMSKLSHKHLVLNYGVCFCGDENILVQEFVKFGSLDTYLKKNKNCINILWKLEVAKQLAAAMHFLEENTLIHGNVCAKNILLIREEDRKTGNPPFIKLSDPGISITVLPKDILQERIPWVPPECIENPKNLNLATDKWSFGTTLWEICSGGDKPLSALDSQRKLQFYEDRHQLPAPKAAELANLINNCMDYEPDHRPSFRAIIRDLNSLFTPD

SMILES | IC50 [1] [nM] | solubility at 24 h ([2]; read-out: FaSSIF solubility) [µg/mL] | IC50 [3] [nM] | Selectivity FLT3/JH2 V617F [4] | IC50 [5] [nM] | Selectivity TRKA/JH2 V617F [6] | solubility at 24 h ([2]; read-out: Solubility Fassif) [µg/mL] | IC50 [7] [nM] | IC50 [8] [nM]
COc1ccc(-c2c(-c3cnn(Cc4ccncc4)c3)[nH]c3ncc4c(c23)n(C2CCCC2)c(=O)n4C)cc1 [Comparative Example D, reference compound] | ≤ 10 | < 20 |  |  |  |  |  |  | 
CN(C)C(=O)c1ccc(-c2[nH]c3ncc4c(c3c2-c2ccc3c(cnn3C)c2)n(C2CCCC2)c(=O)n4C)cc1 [Comparative Example F, reference compound] | ≤ 10 | < 20 | 25 to 250 | * (selectivity of ≤500-fold) | 25 to 250 | * (selectivity of ≤500-fold) | ≤ 50 | 300 to 800 | 
CCNC(=O)c1ccc(-c2[nH]c3ncc4c(c3c2-c2ccc3c(cnn3C(C)C)c2)n([C@@H]2CC[C@@H](NC(=O)OC)C2)c(=O)n4C)cc1OC [Example 18, Methyl ((1R,3R)-3-(7-(4-(ethylcarbamoyl)-3-methoxyphenyl)-8-(1-isopropyl-1H-indazol-5-yl)-3-methyl-2-oxo-3,6-dihydroimidazo[4,5-d]pyrrolo[2,3-b]pyridin-1(2H)-yl)cyclopentyl)carbamate] | ≤ 10 |  | 250 to 1250 | **** (selectivity of >1750-fold to ≤5000-fold) | 1250 to 2500 | ***** (selectivity of >5000-fold to ≤12500-fold) |  | ≤ 300 | > 1000
COC(=O)N[C@@H]1CC[C@@H](n2c(=O)n(C)c3cnc4[nH]c(-c5ccc(C(=O)N6CCC(F)(F)CC6)c(F)c5)c(-c5ccc6c(cnn6C(C)C)c5)c4c32)C1 [Example 24, Methyl ((1R,3R)-3-(7-(4-(4,4-difluoropiperidine-1-carbonyl)-3-fluorophenyl)-8-(1-isopropyl-1H-indazol-5-yl)-3-methyl-2-oxo-3,6-dihydroimidazo[4,5-d]pyrrolo[2,3-b]pyridin-1(2H)-yl)cyclopentyl)carbamate] | ≤ 10 |  | > 2500 | ****** (selectivity of >12500-fold) | > 2500 | ****** (selectivity of >12500-fold) |  | 300 to 800 | > 1000
